Reference: US12473308B2, “Luminescent silafluorene and germafluorene compounds” (The Curators Of The University Of Missouri, priority 2019, dated 2025)
Entries after “also recorded” stand apart in the source; their conditions may differ.

Assays:
ExpiCHO cells = test: Fluorescence staining of CHO cells; assay type: cell-based; settings: 10 μM, 15 minutes
Experimental: (§1) The surfactants are 0.6 mM TX-100, 25 mM CHAPS, 20 mM CTAB, 30 mM SDS, and 10 mM SDBS. ExpiCHO cells were stained with 10 μM 3Si for 15 minutes. Experimental details include Gains: 762; Digital gains: 2.3; Pinhole: 1 AU; and 2% Laser intensity.

[1] = Quantum yield in aqueous solution (Tris) and in the presence of surfactants; assay type: physicochemical; settings: for φTX (quantum yield): 0.6 mM TX-100; for φSBDS (quantum yield): 10 mM SDBS; for φCTAB (quantum yield): 20 mM CTAB; for φCHAPS (quantum yield): 25 mM CHAPS; for φSDS (quantum yield): 30 mM SDS; for φTris (quantum yield): aqueous solution, Tris, no surfactant
Experimental: (§2) Quantum yields were collected for these compounds in aqueous solution and in the presence of the aforementioned surfactants and the data are shown in Table 2. Quantum yields in the presence of surfactants are markedly higher than in their absence. In the presence of detergents, the quantum yield is recovered to near perfect quantum efficiency.
as §1

[2] = Fluorescence change upon addition of detergent Triton X-100; settings: for spectral change when Triton X-100 is added: neutral detergent Triton X-100
Experimental: (§3) Non-denaturing detergents, common proxies for membranes and lipids, were added to each compound. […] Moreover, the degree of enhancement is very sensitive to the aggregation state of the detergent: enhancement is more dramatic at concentrations at which the detergents are known to form micellar aggregates (critical micelle concentration).
Detergents enhance fluorescence. Triton X-100 (TX100) was added to each metallafluorene at concentrations below and above TX-100's CMC (0.3 mM), and fluorescence was measured (FIGS. 31A, 31B, and 32).
as §3, with “(i.e. the critical” for “(critical”

[3] = Solubility in DMSO and in aqueous solution; assay type: physicochemical; settings: for solubility in aqueous solution: aqueous solutions / aqueous buffer, diluted from DMSO
Source text: Studies have been conducted herein for a series of silafluorenes with a broad range of alkynyl substituent groups: 3Si, 4Si, 7Si, […], 9Si, and 11Si, and 13Si. […] This provides a tunability to the optical behavior that is useful for bioimaging.
This provides a tunability to the optical behavior that is useful for imaging (FIG. 40).

[4] = Quantum yield in CH2Cl2 (DCM) solution; assay type: physicochemical
Source text: (§4) These new compounds (3Si/3Ge through 8Si %8Ge) show a strong absorption band in CH2Cl2 solution in the region of 371-394 nm (log ε values ranged from 4.25-5.23) and emission maxima in the region of 401-452 nm. The quantum efficiencies determined from solution samples containing the silafluorenes 3Si-8Si were high (0.80-0.87) and the related germafluorenes 3Ge-8Ge had slightly lower values between 0.64-0.83. […] The solid-state quantum yields have been measured for several of the sila- and germafluorenes. The solid-state quantum yields for 7 compounds have been measured and the values range from 0.14 to 0.91 with the highest values for compounds 5Ge […] and 6Ge (0.81). Additional quantum yield measurements both in solution and in the solid-state are made for other compounds shown in Scheme 2 (FIG. 2).
The silafluorenes show intense fluorescence both in solution and in the solid-state (FIG. 11). The quantum yield range in CH2Cl2 solution is 0.80-0.89 for several silafluorenes studied to date.
as §2

[5] = Solid-state quantum yield; assay type: physicochemical
Source text: as §4

[6] = tested on: yeast cells (S. cerevisiae); test: Fluorescence confocal microscopy of yeast cells; assay type: cell-based; settings: permeabilized with DMSO, 405 nm laser, 100×
Experimental: S. cerevisiae were stained with 2,7-bis(4-ethynylphenanthrene)-3,6-dimethoxy-9,9-diphenylsilafluorene, referred to as Si phenanthrene, for 1 hour, then imaged on a confocal microscope (FIGS. 35 and 36).
S. cerevisiae were stained with 2,7-bis(4-ethynylbenzaldehyde)-3,6-dimethoxy-9,9-diphenylsilafluorene, referred to as Si benzaldehyde, for 1 hour, then imaged on a confocal microscope (FIG. 37). Again, DMSO was used to permeabilize cells.

[7] = tested on: calf thymus (mixed sequence) DNA; test: Spectroscopic DNA binding study; settings: aqueous buffer, calf thymus DNA added
[8] = Solvatochromism: emission in different solvents; assay type: physicochemical
Source text: Solvents, like water and dichloromethane, greatly affect the fluorescence energy (i.e., color) of some molecules—this is called solvatochromism. Excited electrons may mobilize across the molecule more easily in these cases. For example, 2,7-bis(4-ethynylbenzaldehyde)-3,6-dimethoxysilafluorene emits green in ethanol, but blue in nonpolar solvents (FIGS. 23-24).

[9] = Absorption and emission in CH2Cl2 solution and in the solid-state; assay type: physicochemical
Source text: as §4

SMILES	φTX (quantum yield) [1]	φSBDS (quantum yield) [1]	φCTAB (quantum yield) [1]	φCHAPS (quantum yield) [1]	φSDS (quantum yield) [1]	φTris (quantum yield) [1]	spectral change when Triton X-100 is added [2]	solubility in aqueous solution [3]	φDCM (quantum yield) [4]	solubility in DMSO [3]	also measured
COc1cc2c(cc1C#Cc1cccc(F)c1)[Si](c1ccccc1)(c1ccccc1)c1cc(C#Cc3cccc(F)c3)c(OC)cc1-2 [3Si]	1.0 ± 0.04	0.49 ± 0.09	0.98	0.90 ± 0.02	0.55 ± 0.03	0.34 ± 0.005	dramatic blue shifts and emission enhancements	low micromolar concentrations	0.80		fluorescence inside cells (ExpiCHO cells): observed inside of CHO cells; emission enhancement upon the addition of detergent/membrane mimics (comparison) [2]: comparable
COc1cc2c(cc1C#Cc1ccc(C)cc1)[Si](c1ccccc1)(c1ccccc1)c1cc(C#Cc3ccc(C)cc3)c(OC)cc1-2 [4Si]	0.97 ± 0.04	0.56	0.93	0.86	0.55	0.24 ± 0.01	dramatic blue shifts and emission enhancements	low micromolar concentrations	0.89	low millimolar concentrations; also recorded: low micromolar concentrations	
COc1cc2[c](cc1C#Cc1ccc(C(C)(C)C)cc1)[Ge]([c]1ccccc1)([c]1ccccc1)[c]1cc(C#Cc3ccc(C(C)(C)C)cc3)c(OC)cc1-2 [5Ge]											solid-state quantum yield [5]: 0.92
COc1cc2[c](cc1C#Cc1ccc(Oc3ccccc3)cc1)[Ge]([c]1ccccc1)([c]1ccccc1)[c]1cc(C#Cc3ccc(Oc4ccccc4)cc3)c(OC)cc1-2 [6Ge]											solid-state quantum yield [5]: 0.81
COc1cc2c(cc1C#Cc1ccc(-c3ccccc3)cc1)[Si](c1ccccc1)(c1ccccc1)c1cc(C#Cc3ccc(-c4ccccc4)cc3)c(OC)cc1-2 [7Si]	0.94 ± 0.05	0.73	0.93	0.32	0.88 ± 0.05	0.11 ± 0.01		low micromolar concentrations	0.82	low millimolar concentrations; also recorded: low micromolar concentrations; also recorded: least soluble	
COc1ccc2cc(C#Cc3c[c]4c(cc3OC)-c3cc(OC)c(C#Cc5ccc6cc(OC)ccc6c5)c[c]3[Ge]4([c]3ccccc3)[c]3ccccc3)ccc2c1 [8Ge]	0.85 ± 0.06	0.47	0.99	0.93	0.30	0.094 ± 0.01		low micromolar concentrations	0.75	low millimolar concentrations; also recorded: low micromolar concentrations	
COc1cc2c(cc1C#Cc1cccc3ccc4ccccc4c13)[Si](c1ccccc1)(c1ccccc1)c1cc(C#Cc3cccc4ccc5ccccc5c34)c(OC)cc1-2 [9Si, 2,7-bis(4-ethynylphenanthrene)-3,6-dimethoxy-9,9-diphenylsilafluorene]							dramatic blue shifts and emission enhancements	low micromolar concentrations		low millimolar concentrations; also recorded: low micromolar concentrations	staining pattern in cells [6]: either localizing onto an intracellular structure or self-aggregating within the cell; emission enhancement upon the addition of detergent/membrane mimics (comparison) [2]: greatest emission enhancement; change of fluorescence emission upon addition of DNA [7]: decrease in fluorescence emission; solubility in DMSO ([3]; listed as 9.1): least soluble; solubility in aqueous solution ([3]; listed as 2,7-bis-alkynyl(phenanthrene)silafluorene): low micromolar concentration
COc1cc2c(cc1C#Cc1ccc(-n3c4ccccc4c4ccccc43)cc1)[Si](c1ccccc1)(c1ccccc1)c1cc(C#Cc3ccc(-n4c5ccccc5c5ccccc54)cc3)c(OC)cc1-2 [11Si]								low micromolar concentrations		low millimolar concentrations; also recorded: low micromolar concentrations	
COc1cc2c(cc1C#Cc1ccc(C=O)cc1)[Si](c1ccccc1)(c1ccccc1)c1cc(C#Cc3ccc(C=O)cc3)c(OC)cc1-2 [13Si, 2,7-bis(4-ethynylbenzaldehyde)-3,6-dimethoxy-9,9-diphenylsilafluorene]							dramatic blue shifts and emission enhancements	low micromolar concentrations		low millimolar concentrations; also recorded: low micromolar concentrations	emission λmax depending on the solvent ([8]; ethanol, dichloromethane, hexanes): 440-550 nm; emission colour ([8]; in ethanol): green; emission colour ([8]; in nonpolar solvents): blue; staining pattern in cells [6]: staining diffuse throughout the cell; emission enhancement upon the addition of detergent/membrane mimics (comparison) [2]: comparable
FC(F)(F)c1ccc(C#Cc2cc[c]3c(c2)-c2cc(C#Cc4ccc(C(F)(F)F)cc4)cc[c]2[Ge]3([c]2ccccc2)[c]2ccccc2)cc1 [16Ge]											shift of absorbance and emission compared to related 2,7-disubstituted derivatives ([9]; 3,6-disubstituted versus 2,7-disubstituted): significant blue-shift; absorption maximum ([9]; CH2Cl2 solution): 288 nm; emission maximum ([9]; CH2Cl2 solution): 352 nm; emission from the solid-state ([9]; solid-state): 393 nm
COc1cc2c(cc1C#Cc1cccc(F)c1)[Si](c1ccccc1)(c1ccccc1)c1cc(C#Cc3cccc(F)c3)c(OC)cc1-2 [meta-fluoro-silafluorene]											emission (in words) ([9]; methylene chloride solution and solid state): strong emission
